Experiment [1] addresses T1, HIF-2α HIS TAG-PASB Domain (Homo sapiens, UniProt Q99814).
T1 construct: 100 nM HIF-2α HIS TAG-PASB Domain
The experiment in a line: HIF-2α Scintillation Proximity Assay (SPA). Type of experiment: binding. In short, it runs like this:
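IC50 values rest on percent inhibition, where the sample signal is scaled between high and low controls. Wells contain about 100 μL: compound dispensed as 2 μL of DMSO solution, 88 μL protein-probe mix and 10 μL of beads.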

In experiment [2] the test system is 786-O-Hif-Luc cells. The experiment in a line: Luciferase Assay (HIF responsive elements reporter).
Experimental: A pool of infected cells were then selected against 2 μg/mL of puromycin (P8833, Sigma) for 10 days followed by limited dilution to select single clones. […] Each concentration was tested in triplicate. After about 24 hours, luciferase activity was determined using ONE-Glo Luciferase Assay Reagent (E6110, Promega) following the manufacturer's recommended procedure. EC50 were calculated using Dotmatics software.
Where [3] appears, read: read-out: Scintillation Proximity Assay IC50.
Setting [4] is: read-out: Mean Luciferase EC50 (nM), 786-O-Hif-Luc cells.

Where two headings read alike, the source gives them in different places.

What is called IC50 is the point on the concentration scale where inhibition reaches its midpoint. By EC50 is commonly meant the midpoint of the concentration-response curve.

T1 sequence (Q99814 240-350 limits assumed): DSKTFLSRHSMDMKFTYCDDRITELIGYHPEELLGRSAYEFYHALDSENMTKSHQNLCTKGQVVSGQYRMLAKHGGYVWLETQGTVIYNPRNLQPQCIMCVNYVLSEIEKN

For the compound `O=Cc1c(S(=O)(=O)C(F)(F)F)ccc(Oc2cc(F)cc(Cl)c2)c1Cl` [Compound 112], in experiment [1] (setting [3]), the IC50 was < 50 nM. The EC50 in experiment [2] (setting [4]) is 250 to 1000 nM.

In the case of `CS(=O)(=O)c1ccc(OCC(F)(F)F)c2c1[C@H](O)C(F)(F)[C@@H]2F` [Compound 751], the IC50 in experiment [1] (setting [3]) lay within 50 to 249 nM. In addition, in experiment [2] (setting [4]), the EC50 is > 1000 nM.

For `O=S1(=O)c2ccc(Oc3cc(F)cc(Cl)c3)c(Br)c2[C@@H](O)C1(F)F` [Compound 403], the IC50 in experiment [1] (Scintillation Proximity Assay IC50 (nM)) is < 50 nM. For the same compound, the EC50 in experiment [2] (read-out: Mean Luciferase EC50 (nM)) is < 50 nM.

Take `CC(Oc1ccc(S(=O)(=O)C(F)(F)F)c2c1CC(F)(F)C2O)C1CC1` (stereo not drawn) [Compound 746]: the half-maximal inhibitory concentration (IC50) in experiment [1] (setting [3]) is < 50 nM. The EC50 in experiment [2] (setting [4]) was < 50 nM.

For the compound `Cc1cncc(Oc2ccc3c(c2Br)[C@@H](O)C(F)(F)S3(=O)=O)c1` [Compound 428], in experiment [1] (setting [3]), the IC50 is > 1000 nM. Also, the 50% effective concentration (EC50) in experiment [2] (setting [4]) is > 1000 nM.

For the compound `O=S(=O)(CF)c1ccc(Oc2cncc(Cl)c2)c2c1[C@H](O)C(F)(F)C2` [Compound 187], the IC50 in experiment [1] (setting [3]) was 50 to 249 nM. Also, the EC50 in experiment [2] (setting [4]) was 50 to 249 nM.

For `N#Cc1cc(F)cc(Oc2ccc(S(=O)(=O)C(F)(F)F)c(C#N)c2Br)c1` [Compound 100], the IC50 in experiment [1] (setting [3]) was 50 to 249 nM. Also, the EC50 in experiment [2] (setting [4]) was > 1000 nM.

Consider `CC(C)(C#N)COc1ccc(S(=O)(=O)C(F)(F)F)c2c1CCC2O` (stereo not drawn) [Compound 609], for which the IC50 in experiment [1] (setting [3]) fell in the range of 50 to 249 nM. In experiment [2] (setting [4]), the EC50 is > 1000 nM.

Take `CC1(O)c2c(ccc(Oc3cc(F)cc(F)c3)c2Br)S(=O)(=O)C1(F)F` (stereo not drawn) [Compound 444]: the half-maximal inhibitory concentration (IC50) in experiment [1] (setting [3]) lay in the range of 50 to 249 nM. In addition, in experiment [2] (setting [4]), the EC50 lay in the range of 250 to 1000 nM.

`N#Cc1c(Oc2cc(F)cc(F)c2)ccc2c1C(O)C(F)S2(=O)=O` (stereo not drawn) [Compound 390]: the IC50 in experiment [1] (setting [3]) is > 1000 nM. Moreover, the EC50 in experiment [2] (setting [4]) is 250 to 1000 nM.

On to `N#Cc1cc(F)cc(Oc2ccc(S(=O)(=O)C3CCC3)c3c2CC(F)(F)[C@H]3O)c1` [Compound 209], for which the IC50 in experiment [1] (setting [3]) lay within 250 to 1000 nM. The EC50 in experiment [2] (setting [4]) was > 1000 nM.

Regarding `C[C@]1(C#N)C[C@H](Oc2ccc(S(=O)(=O)C(F)(F)F)c3c2C[C@H](F)[C@H]3O)C1` [Compound 795], the IC50 in experiment [1] (setting [3]) lay within 50 to 249 nM. Moreover, the EC50 in experiment [2] (setting [4]) lay within 50 to 249 nM.

On to `O[C@H]1c2c(C(F)(F)F)ccc(OCC(F)F)c2[C@@H](F)C1(F)F` [Compound 699], for which the IC50 in experiment [1] (setting [3]) is < 50 nM. Further, the EC50 in experiment [2] (setting [4]) is 50 to 249 nM.

Regarding `N#Cc1cc(F)cc(Oc2ccc(S(=O)(=O)C(F)(F)F)c3c2CC(F)(F)[C@H]3NCCO)c1` [Compound 291], the IC50 in experiment [1] (setting [3]) is > 1000 nM. The EC50 in experiment [2] (setting [4]) was > 1000 nM.

In the case of `CS(=O)(=O)c1ccc(O[C@H]2C[C@@](F)(C#N)C2)c2c1[C@H](O)C(F)(F)[C@@H]2F` [Compound 739], in experiment [1] (setting [3]), the IC50 was < 50 nM. For the same compound, in experiment [2] (setting [4]), the EC50 is > 1000 nM.

Turning to `O=S1(=O)c2ccc(Oc3cccc4cn[nH]c34)c(C(F)F)c2C(O)C1(F)F` (stereo not drawn) [Compound 441], the IC50 in experiment [1] (setting [3]) was > 1000 nM. The EC50 in experiment [2] (setting [4]) was > 1000 nM.

As to `O=S(=O)(c1ccc(OC2CCCCC2)c2c1C(O)CC2)C(F)(F)F` (stereo not drawn) [Compound 616], in experiment [1] (setting [3]), the IC50 lay in the range of 50 to 249 nM. For the same compound, the EC50 in experiment [2] (setting [4]) fell in the range of 250 to 1000 nM.

Regarding `O=S(=O)(c1ccc(Oc2cncc(F)c2)c2c1[C@H](O)CC2)C(F)F` [Compound 5], in experiment [1] (setting [3]), the IC50 lay within 250 to 1000 nM. Also, the EC50 in experiment [2] (setting [4]) was 250 to 1000 nM.

For the compound `O=S(=O)(c1ccc(Oc2c(F)ccc3[nH]ncc23)c2c1C(O)C(F)(F)C2)C(F)(F)F` (stereo not drawn) [Compound 244], in experiment [1] (setting [3]), the IC50 was 250 to 1000 nM. In addition, in experiment [2] (setting [4]), the EC50 was > 1000 nM.

For the compound `CC(Oc1ccc(S(C)(=O)=O)c2c1[C@@H](F)C(F)(F)[C@H]2O)C(F)F` (stereo partly drawn) [Compound 774], the IC50 in experiment [1] (setting [3]) is < 50 nM. The EC50 in experiment [2] (setting [4]) fell in the range of 250 to 1000 nM.

With `O=S(=O)(c1ccc(Oc2cc(F)cc(Cl)c2)c(Br)c1CNCc1ccccc1)C(F)(F)F` [Compound 110], the IC50 in experiment [1] (setting [3]) was > 1000 nM. Besides, the EC50 in experiment [2] (setting [4]) was > 1000 nM.

As for `COC(C)COc1ccc(S(=O)(=O)C(F)(F)F)c2c1CC(F)(F)C2O` (stereo not drawn) [Compound 626], the IC50 in experiment [1] (setting [3]) is < 50 nM. Further, the EC50 in experiment [2] (setting [4]) lay in the range of 50 to 249 nM.

Consider `N#CC1(COc2ccc(S(=O)(=O)C(F)(F)F)c3c2C[C@@H](F)[C@H]3O)CC1` [Compound 661], for which, in experiment [1] (setting [3]), the 50% inhibitory concentration (IC50) is < 50 nM. In addition, the EC50 in experiment [2] (setting [4]) is < 50 nM.

In the case of `O[C@H]1c2c(C(F)(F)F)ccc(OCC(F)F)c2C[C@@H]1F` [Compound 697], the IC50 in experiment [1] (setting [3]) was 50 to 249 nM. In addition, the EC50 in experiment [2] (setting [4]) fell in the range of 50 to 249 nM.

On to `N#Cc1cc(F)cc(Oc2ccc3c(c2C#N)[C@@H](O)CS3(=O)=O)c1` [Compound 416], for which, in experiment [1] (setting [3]), the IC50 is > 1000 nM. In addition, the EC50 in experiment [2] (setting [4]) lay in the range of 250 to 1000 nM.

Turning to `N#Cc1cc(F)cc(Oc2ccc(S(=O)(=O)C(F)F)cc2C#N)c1` [Compound 134], the IC50 in experiment [1] (setting [3]) lay in the range of 250 to 1000 nM. Besides, the concentration for a half-maximal effect (EC50) in experiment [2] (setting [4]) was > 1000 nM.

For the compound `N#Cc1cccc(-c2ccc(S(=O)(=O)C(F)(F)F)c3c2CC(F)(F)[C@H]3O)c1` [Compound 569], in experiment [1] (setting [3]), the IC50 is 50 to 249 nM. Moreover, the EC50 in experiment [2] (setting [4]) was in the range of 250 to 1000 nM.

Source of the values: US10278942B2 (PELOTON THERAPEUTICS, INC., priority 2015, dated 2019).
